Measurements from paper PMC4428838, “Optimization of Invasion-Specific Effects of Betulin Derivatives on Prostate Cancer Cells through Lead Development” (PLoS ONE, 2015).

Experiments:
in vitro = assay type: cell-based; details: human
Method: To rule out that cytotoxic and antimitotic effects were misinterpreted as anti-invasive, we tested compounds 4, 5, 6, 19 and 20 for inhibition of proliferation and induction of cell death in a 2D monolayer culture (summarized in Fig 6). […] LNCaP cells were more sensitive, with growth inhibition/cytotoxicity starting at 3 μM. The effects on non-transformed, apoptosis-sensitive Ep156T cells were strongest. Here, cytotoxic effects were typically observed already at 0.3–1 μM. […] We further calculated EC50 values for proliferation, apoptosis and cell death for each compound, using the PerkinElmer Harmony software (method validation shown in S7 Fig). The only assay that produced results consistent with those of the betulin derivatives tested in the 2D cell culture model was the proliferation assay (Table 1).
Fig 6 Cytotoxicity tests performed in 2D monolayer culture. A) Cell proliferation/cell number, B) programmed cell death (apoptosis), and C) number of dead cells were assessed by conventional assays, combined with high-content microscopy (Operetta). […] Proliferation was measured as the total number of nuclei (= cells), apoptosis as ratio of caspase-3 positive versus all cells, and cell death as ethidium homodimer-2 positive nuclei versus all cells.
Cells were transferred into CellCarrier 384-well plates (PerkinElmer, Waltham, MA, USA) at a density of 1250 cells/well, using Multidrop dispenser (ThermoFisher Scientific, Waltham, MA, USA). After overnight incubation at 37°C experimental, compounds were added with an ATS Acoustic Transfer System (EDC Biosystems, Fremont, CA, USA). For Ep156T cells the protocol was done in reverse with compounds dispensed before seeding of cells. Fluorescent markers were dispensed in culture medium using ATS system after 72-h compound exposure. Nuclei were stained with cell-permeable Hoechst 33342 (Molecular Probes, Eugene, OR, USA), dead cells with ethidium homodimer-2 (Invitrogen, Carlsbad, CA, USA) and apoptotic cells with NucView caspase-3 detection reagent (Essen Bioscience, Ann Arbor, MI, USA). Cells were imaged with Operetta high-content imager (PerkinElmer, Waltham, MA, USA). Proliferation was measured from the number of nuclei (cells), cell death and apoptosis from positive cells/total cells ratio using Harmony image analysis software (PerkinElmer, Waltham, MA, USA). EC50 values were also assessed with the Harmony software.

[1] = tested on: phosphorylation levels of 43 kinases in PC-3 cells; assay: Phospho-kinase antibody array on lysates of 3D cultures; assay type: cell-based, human; details: for p70 S6 kinase (T389), p53 (S392) and PYK2 (Y402) phosphorylation: 6-d exposure; for phosphorylation levels of STAT3 (Y727), c-Jun (S63), eNOS (S1177) and PLC-γ1 (Y783): both short (4 h, 1 μM) and long-term (6 d, 300 nM) exposures
Method: In order to elucidate possible mechanism of action for our betulin derivatives, we used a phospho-kinase array that quantitatively detects the phosphorylation levels of 43 kinases in cell lysates (Fig 7). Lysates were extracted from 3D cell cultures of PC-3 cells, and exposed to betulin-derived compounds for short (4 hours) or long-term (6 days) periods. For these studies, we selected the two representative derivatives 5 and 20 as the most specific, least cytotoxic inhibitors of cell invasion. […] The kinase arrays were also quantified by image densitometry (Fig 7A). […] The reduction of AKT activity by both compounds was validated by western blotting, using an independent, p-AKT specific antibody (Fig 7B). The short treatments caused only modest changes with a maximum reduction of protein phosphorylation by 2-fold (20: GSK-3α/β S21/S9 and STAT3 Y705). Phosphorylation levels of only three kinases were altered more than 2-fold in the long-term exposures, namely AKT (T308), p53 (S46) and eNOS (S1177), caused by nanomolar concentrations of compound 5. Compound 20 had much less dramatic effects on kinase phosphorylation when compared to compound 5, despite its generally more pronounced anti-invasive effects.
Fig 7 Mechanisms of action. PC-3 spheroids were exposed to two representative betulin derivatives, 5 and 20, for 4 h (at 1 μM) and 6 days (at 0.3 μM). A) Computational quantification of signal intensities from the kinase arrays, aligned by fold changes observed (left to right). B) Western blot of total and phospho-Akt (S473) shown for both short and long-term exposure to 20 and 5.
In order to generate sufficient protein material for antibody arrays, we resorted to 6-well Millicell hanging cell culture inserts (Merck Millipore, Billerica, MA, USA). Membranes were pre-coated with 4 mg/mL GFR Matrigel (Corning Inc., New York, NY, USA) and incubated at 37°C for 1 h to prevent attachment to the membrane. GFR Matrigel (2 mg/mL) was prepared and 100,000 cells were added in. The Matrigel-cell suspension was transferred into the coated wells and incubated overnight at 37°C. Fresh medium was added the following day under the insert. After four days in culture fresh media with compounds 20 and 5 at 0.3 μM concentration compounds were added for six days long-term exposure. On day 10, the same compounds were added in fresh medium at 1 μM concentration for the 4h short-term exposure. DMSO was used as a negative control in both exposures. Cells were harvested by first washing the inserts with ice cold PBS, then incubating the isolated ECM slabs in ice cold 5 mM ethylenediaminetetraacetic acid (EDTA) in PBS on ice on a table top rocker for 45 min to dissolve the ECM, and finally by washing the cell pellets once with PBS before lysing them in Lysis Buffer 6 (R&D Systems, Minneapolis, MN, USA). The antibody arrays used were from the Human Phospho-Kinase Array Kit (R&D Systems, Minneapolis, MN, USA). The samples were assayed according to manufacturer’s instructions. Exposed radiograms were scanned with a tabletop scanner and spot intensities quantified using Array-Pro Analyzer (v4.5.1.73) software.

SMILES | EC50 at 72 h (in vitro) | AMPKα1 (T174) phosphorylation [1] | phosphorylation of mTOR (S2448), Fyn (Y420) and Src (Y419) [1] | p70 S6 kinase (T389), p53 (S392) and PYK2 (Y402) phosphorylation ([1]; 300 nM) | Akt (S473) phosphorylation ([1]; 4 h at 1 μM vs 6 d at 300 nM) | phosphorylation levels of STAT3 (Y727), c-Jun (S63), eNOS (S1177) and PLC-γ1 (Y783) [1] | phosphorylation of Hck (Y411), pan-JNK, GSK-3α/β (S21/S9), STAT3 (Y705) and WNK1 (T60) sites ([1]; compound-specific effects) | maximum reduction of protein phosphorylation (GSK-3α/β S21/S9 and STAT3 Y705) ([1]; short treatments, 4 h, 1 μM) | p53 (S15) phosphorylation ([1]; short-term exposure, 4 h, 1 μM) | phosphorylation of p53 sites S46 and S392 [1] | alteration of phosphorylation levels of AKT (T308), p53 (S46) and eNOS (S1177) ([1]; long-term exposures, 6 d, nanomolar concentrations) | Akt (T308) phosphorylation ([1]; long-term treatment, 6 d, 300 nM) | specific changes in kinase activity ([1]; short-term exposure, 4 h, 1 μM)
C=C(C)[C@@H]1CC[C@]2(C(=O)O)CC[C@]3(C)C(CCC4[C@@]5(C)Cc6ncccc6C(C)(C)C5CC[C@]43C)C12 (stereo partly drawn) [Compound 20] | 67 µM | increased | increased | reduced | only inhibited by the 6-d exposure | clearly decreased | differential phosphorylation | 2 fold | reduced | – | – | – | –
C=C(C)[C@@H]1CC[C@]2(C(=O)O)CC[C@]3(C)C(CCC4[C@@]5(C)Cc6cnoc6C(C)(C)C5CC[C@]43C)C12 (stereo partly drawn) [Compound 5] | 10 µM | increased | – | reduced | – | clearly decreased | – | – | reduced | consistently decreased | more than 2 fold | abolished almost entirely | did not cause any specific changes in kinase activity
